Data from patent US6143769A, “Phenylacetic acid benzylamides” (Karl Thomae GmbH, priority 1983, dated 2000).
Where two headings read alike, the source gives them in different places.

Test system: blood glucose
Experiment: Test for hypoglycemic activity in fasted female rats (oral)
Assay type: in vivo
Conditions: for change in vivo at 1 mg/kg / change in vivo at 0.5 mg/kg: Rattus norvegicus, po, read-out: Change in glucose content compared with control
Method: Blood samples were taken immediately before the administration of the test compound and 1, 2, 3 and 4 hours afterwards, in each case from the retroorbital Venous plexus. 50 μl of each sample were deproteinated with 0.5 ml of 0.33 N perchloric acid and centrifuged. The glucose in the supernatant fluid was measured using the hexokinase method with the aid of an analytical photometer. The statistical evaluation was made using the t-test according to Student with p=0.05 as the limit of significance.

SMILES | change in vivo at 1 mg/kg (1 mg/kg, 1 h) [%] | change in vivo at 1 mg/kg (1 mg/kg, 2 h) [%] | change in vivo at 1 mg/kg (1 mg/kg, 3 h) [%] | change in vivo at 1 mg/kg (1 mg/kg, 4 h) [%] | change in vivo at 0.5 mg/kg (0.5 mg/kg, 1 h) [%] | change in vivo at 0.5 mg/kg (0.5 mg/kg, 2 h) [%] | change in vivo at 0.5 mg/kg (0.5 mg/kg, 3 h) [%] | change in vivo at 0.5 mg/kg (0.5 mg/kg, 4 h) [%] | Change in glucose content compared with control (0.5 mg/kg, 4 h) | Change in glucose content compared with control (1 mg/kg, 3 h) | Change in glucose content compared with control (1 mg/kg, 4 h)
CCOc1cc(CC(=O)NC(c2ccccc2)c2ccccc2N2CCCCC2)ccc1CC#N (stereo not drawn) [P, [2-ethoxy-4-[N-(α-phenyl-2-piperidino-benzyl)-aminocarbonylmethyl]-phenyl]acetonitrile] | -12 | -10 | -14 | -14 | – | – | – | – | – | – | –
C=C(C)CC(NC(=O)Cc1ccc(C(=O)O)c(OCC)c1)c1ccccc1N1CCCCC1 (stereo not drawn) [X, 2-ethoxy-4-[N-(1-(2-piperidino-phenyl)-3-methyl-3-buten-1-yl)-aminocarbonylmethyl]benzoic acid] | – | – | – | – | -44 | -41 | -31 | -28 | – | – | –
COc1cc(CC(=O)NC(c2ccccc2)c2ccccc2N2CCCCC2)ccc1C(=O)O (stereo not drawn) [C, 2-methoxy-4-[N-(α-phenyl-2-piperidino-benzyl)-aminocarbonymethyl]-benzoic acid] | -38 | -41 | -38 | -34 | – | – | – | – | – | – | –
CCCCC(NC(=O)Cc1ccc(C(=O)O)c(OCC)c1)c1ccccc1N1CCCCC1 (stereo not drawn) [L, 2-ethoxy-4-[N-{1-(2-piperidino-phenyl)-1-pentyl}-aminocarbonylmethyl]-benzoic acid] | – | – | – | – | -42 | -45 | -38 | -39 | – | – | –
CCCC(NC(=O)Cc1ccc(CC#N)c(OCC)c1)c1ccccc1N1CCCCC1 (stereo not drawn) [O, [2-ethoxy-4-[N-(1-(2-piperidino-phenyl)-1-butyl)-aminocarbonylmethyl]-phenyl]-acetonitrile] | -29 | -37 | -35 | -34 | – | – | – | – | – | – | –
CCCOc1cc(CC(=O)NC(CCC)c2ccccc2N2CCCCC2)ccc1C(=O)O (stereo not drawn) [K, 2-n-propoxy-4-[N-{1-(2-piperidino-phenyl)-1-butyl}-aminocarbonylmethyl]-benzoic acid] | – | – | – | – | -34 | -36 | -24 | – | n.s. | – | –
CCOc1cc(CC(=O)NC(CC2CCCCC2)c2ccccc2N2CCCCC2)ccc1C(=O)O (stereo not drawn) [Q, 2-ethoxy-4-[N-(α-cyclohexylmethyl-2-piperidino-benzyl)-aminocarbonyl-methyl]-benzoic acid] | – | – | – | – | -22 | -47 | -45 | -45 | – | – | –
CCCC(NC(=O)Cc1ccc(C(=O)O)c(OCC)c1)c1ccccc1N1CCCCC1 (stereo not drawn) [B, 2-ethoxy-4-[N-{1-(2-piperidino-phenyl)-1-butyl}-aminocarbonylmethyl]-benzoic acid] | -38 | -49 | -38 | -33 | -43 | -36 | -34 | -35 | – | – | –
CCCC(NC(=O)Cc1ccc(C(=O)O)c(OCC)c1)c1ccccc1N1CCCC1 (stereo not drawn) [G, sodium 2-ethoxy-4-[N-{1-(2-pyrrolidino-phenyl)-1-butyl}-aminocarbonylmethyl]-benzoate] | – | – | – | – | -40 | -33 | -30 | -17 | – | – | –
CCCC(NC(=O)Cc1ccc(C(=O)O)c(OCC)c1)c1ccccc1N1CCCCC1 (single isomer, unassigned; (+)) [E, (+)-2-ethoxy-4-[N-{1-(2-piperidino-phenyl)-1-butyl}-aminocarbonylmethyl]-benzoic acid] | – | – | – | – | -40 | -39 | -36 | -36 | – | – | –
CCOc1cc(CC(=O)NC(C)c2ccccc2N2CCCCC2)ccc1C(=O)O (stereo not drawn) [F, 2-ethoxy-4-[N-{1-(2-piperidino-phenyl)-1-ethyl}-aminocarbonylmethyl]-benzoic acid] | -44 | -44 | -40 | -30 | – | – | – | – | – | – | –
COc1cc(CC(=O)NC(C)c2ccccc2N2CCCCC2)ccc1C(=O)O (stereo not drawn) [Compound A, 2-methoxy-4-[N-{1-(2-piperidino-phenyl)-1-ethyl}-aminocarbonylmethyl]-benzoic acid] | -37 | -46 | -23 | -14 | – | – | – | – | – | – | –
CCOC(=O)C(NC(=O)Cc1ccc(C(=O)O)c(OCC)c1)c1ccccc1N1CCCCC1 (stereo not drawn) [R, 2-ethoxy-4-[N-(α-ethoxycarbonyl-2-piperidino-benzyl)-aminocarbonylmethyl]-benzoic acid] | -33 | -17 | – | – | – | – | – | – | – | n.s. | n.s.
C#CCC(NC(=O)Cc1ccc(C(=O)O)c(OCC)c1)c1ccccc1N1CCCCC1 (stereo not drawn) [Y, 2-ethoxy-4-[N-(1-(2-piperidino-phenyl)-3-butyn-1-yl)-aminocarbonylmethyl]benzoic acid] | – | – | – | – | -33 | -18 | -11 | – | n.s. | – | –
CCOc1cc(CC(=O)NC(C(=O)OC(C)C)c2ccccc2N2CCCCC2)ccc1C(=O)O (stereo not drawn) [T, 2-ethoxy-4-[N-(α-isopropoxycarbonyl-2-piperidino-benzyl)-aminocarbonylmethyl]benzoic acid] | -36 | -21 | -18 | – | – | – | – | – | – | – | n.s.
CCCC(NC(=O)Cc1ccc(C(=O)O)c(OC)c1)c1ccccc1N1CCCCC1 (stereo not drawn) [I, 2-methoxy-4-[N-{1-(2-piperidino-phenyl)-1-butyl}-aminocarbonylmethyl]-benzoic acid] | – | – | – | – | -42 | -39 | -37 | -30 | – | – | –
CCCC(NC(=O)Cc1ccc(C(=O)O)c(OCC)c1)c1ccccc1N1CCCCCC1 (stereo not drawn) [H, 2-ethoxy-4-[N-{1-(2-hexamethyleneimino-phenyl)-1-butyl}-aminocarbonylmethyl]-benzoic acid] | – | – | – | – | -42 | -34 | -18 | – | n.s. | – | –
CCOc1cc(CC(=O)NC(CC2CCCO2)c2ccccc2N2CCCCC2)ccc1C(=O)O (stereo not drawn) [V, 2-ethoxy-4-[N-(α-(tetrahydrofuran-2-yl-methyl)-2-piperidino-benzyl)-aminocarbonylmethyl]benzoic acid] | – | – | – | – | -46 | -25 | -13 | -10 | – | – | –
C=CCC(NC(=O)Cc1ccc(C(=O)O)c(OCC)c1)c1ccccc1N1CCCCC1 (stereo not drawn) [W, 2-ethoxy-4-[N-(1-(2-piperidino-phenyl)-3-buten-1-yl)-aminocarbonylmethyl]benzoic acid] | – | – | – | – | -42 | -39 | -28 | -35 | – | – | –
CCOc1cc(CC(=O)NC(CC2CC2)c2ccccc2N2CCCCC2)ccc1C(=O)O (stereo not drawn) [U, 2-ethoxy-4-[N-(α-cyclopropylmethyl-2-piperidino-benzyl)-aminocarbonylmethyl]benzoic acid] | – | – | – | – | -45 | -45 | -36 | -36 | – | – | –
